In patent US10682371B2, “Small molecule conjugates specifically activated in tumor microenvironment for targeting and use thereof” (priority 2014, dated 2020):
Like-named read-outs stand apart in the source and are kept apart here.

Columns and labels:
[1] = system: Human breast cancer MDA-MB435 tumor tissue homogenate; type: biochemical; details: for Activation ratio (%) in homogenates from different tumor tissues: Human breast cancer MDA-MB435, 1 mg/ml
Experimental: (§1) At 37 °C, sample compounds were added into 100 μg acidized tumor tissue homogenates (pH6.0) in a concentration of 1 mg/ml.
(§2) At 37 °C, sample compounds were added into 100 μg acidized human breast cancer (MDA-MB435) tumor tissue homogenates (pH6.0) in a concentration of 1 mg/ml.
(§3) […], sample compounds were added into 100 μg acidized tumor tissue homogenates (pH6.0) in a concentration of 1 mg/ml.
as §2
(§4) At 37 °C, sample compounds were added into 100 μg acidized tumor tissue homogenates in a concentration of 1 mg/ml.
(§5) In the experiments, at 37 °C, compounds were added into proteases in 100 μg acidized tumor tissue homogenates in a concentration of 1 mg/ml. […] Meanwhile certain compounds produced in the screening were compared and their activation efficiency in same tissue was analyzed.
(§6) At 37° C., compounds were added into proteases in 100 μg acidized tumor tissue homogenates in a concentration of 1 mg/ml.

[2] = system: Human colon cancer HT-29 tumor tissue homogenate; type: biochemical; details: Human colon cancer HT-29, 1 mg/ml
Experimental: as §1, §3, §4, §5, §6

[3] = system: Human liver cancer Hepg2 tumor tissue homogenate; type: biochemical; details: for Activation ratio (%) in homogenates from different tumor tissues: Human liver cancer Hepg2, 1 mg/ml
Experimental: as §1, §3, §4, §5, §6

[4] = system: Human non-small cell lung cancer A549 tumor tissue homogenate; type: biochemical; details: for Activation ratio (%) in homogenates from different tumor tissues: Human non-small cell lung cancer A549, 1 mg/ml
Experimental: as §1, §3, §4, §5, §6

[5] = system: Human ovarian cancer SK-OV-3 tumor tissue homogenate; type: biochemical; details: for Activation ratio (%) in homogenates from different tumor tissues: Human ovarian cancer SK-OV-3, 1 mg/ml
Experimental: as §1, §3, §4, §5, §6

[6] = system: Human pancreatic cancer Panc-1 tumor tissue homogenate; type: biochemical; details: for Activation ratio (%) in homogenates from different tumor tissues: Human pancreatic cancer Panc-1, 1 mg/ml
Experimental: as §1, §3, §4, §5, §6

[7] = system: Human prostate cancer PC-3 tumor tissue homogenate; type: biochemical; details: for Activation ratio (%) in homogenates from different tumor tissues: Human prostate cancer PC-3, 1 mg/ml
Experimental: as §1, §3, §4, §5, §6

[8] = system: Human renal cancer OS-RC-2 tumor tissue homogenate; type: biochemical; details: for Activation ratio (%) in homogenates from different tumor tissues: Human renal cancer OS-RC-2, 1 mg/ml
Experimental: as §1, §3, §4, §5, §6

D121 lung tumor cells = type: in vivo, C57 mice; details: for Treatment effects on C57 mice, in words: compared to the control group and the other treatment groups; for Effect together with PDL1-antibody in promoting immunization and treatment, in words: combination with PDL1-antibody
Method in brief: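 Endpoint is tumor inhibition rate from tumor size (mm^3) after weekly drug treatment for 4 weeks, begun once s.c. tumors from 10^6 live D121 cells reached 0.3-0.4 cm. Before challenge, C57 mice received three i.p. doses of 5×10^5 irradiated D121 cells, two weeks apart, or saline.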

tumor CD8+ T cells = type: in vivo, C57 mice
Method in brief: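 Tumour tissue homogenised and single cells filtered, washed, then stained 1 h at ambient temperature with CD45-PE and CD8-FITC antibodies. After washes in PBS with 1% FBS, flow cytometry gave the fraction of CD8⁺ cells among CD45⁺ leucocytes.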

[9] = system: Human chronic leukemia K562 tumor tissue homogenate; type: biochemical; details: for Activation ratio (%) in homogenates from different tumor tissues: Human chronic leukemia K562, 1 mg/ml
Experimental: as §1, §3, §4, §5, §6

Human heart = type: biochemical; details: Human heart homogenate; 1 mg/ml compound
[10] = immunized C57 mice, drugs 13.2 μmol/kg, PDL1 antibody 5 μg/kg, weekly for 4 weeks
[11] = ratio of CD8 positive cells in CD45 positive cells of tumor, flow cytometry, drugs 13.2 μmol/kg, PDL1 antibody 5 μg/kg
[12] = Table 45, acidized homogenate, Docetaxel release by HPLC
[13] = Table 49, immunized C57 mice, D121, drugs 13.2 μmol/kg, PDL1 antibody 5 μg/kg, weekly for 4 weeks

Structure (SMILES)	Activation ratio (%) in homogenates from different tumor tissues ([1]; 37° C.) [%]	Activation ratio (%) in homogenates from different tumor tissues ([2]; 37° C.) [%]	Activation ratio (%) in homogenates from different tumor tissues ([3]; 37° C.) [%]	Activation ratio (%) in homogenates from different tumor tissues ([4]; 37° C.) [%]	Activation ratio (%) in homogenates from different tumor tissues ([5]; 37° C.) [%]	Activation ratio (%) in homogenates from different tumor tissues ([6]; 37° C.) [%]	Activation ratio (%) in homogenates from different tumor tissues ([7]; 37° C.) [%]	Activation ratio (%) in homogenates from different tumor tissues ([8]; 37° C.) [%]	Size of tumor (mm^3) Day 18 (D121 lung tumor cells; [10]) [mm^3]	inhibitory rate on tumor % Day 18 (D121 lung tumor cells; [10]) [%]	Treatment effects on C57 mice, in words (D121 lung tumor cells)	CD8: CD45 (%) (tumor CD8+ T cells; [11])	Effect together with PDL1-antibody in promoting immunization and treatment, in words (D121 lung tumor cells)	other results
COCCOCCOCCOCCOCCOCC(=O)N[C@H](C)C(=O)N[C@H](C)C(=O)N[C@H](CC(N)=O)C(=O)Nc1ccc(COC(=O)N2[C@H]3[C@@H]2CN2C4=C(C(=O)C(N)=C(C)C4=O)[C@H](COC(N)=O)[C@]32OC)cc1 [Compound E2]	90.6	96.1	94.8	96.4	97.6	84.6	86.4	94.5	331.57 ± 124.45	83.87	greatly improved	19.7	–	–
CO[C@@]12[C@H](COC(N)=O)C3=C(C(=O)C(C)=C(N)C3=O)N1C[C@@H]1N[C@@H]12 [mitomycin, reference compound]	–	–	–	–	–	–	–	–	1210.28 ± 368.45	28.62	–	6.7	–	–
COCCOCC(=O)N[C@H](C)C(=O)N[C@H](C)C(=O)N[C@H](CC(N)=O)C(=O)Nc1ccc(COC(=O)N2[C@@H]3CN4C5=C(C(=O)C(N)=C(C)C5=O)[C@H](COC(N)=O)[C@]4(OC)[C@@H]32)cc1 [Compound E1, 2-(2-methoxyethoxy) acetyl-L-Ala-L-Ala-L-Asn-4-amino benzyl mitomycin]	97.3	94.2	94.6	97.4	93.5	89.4	78.9	99.7	237.60 ± 358.57	83.27	greatly improved	18.4	excellent synergistic effect	Activation ratio (%) in homogenates from different tumor tissues ([9]; 37° C.): 74.5%
COCCOCC(=O)N[C@H](C)C(=O)N[C@H](C)C(=O)N[C@H](CC(N)=O)C(=O)Nc1ccc(COC(=O)OC(C(=O)OC2C[C@@]3(O)[C@@H](OC(=O)c4ccccc4)[C@H]4[C@](C)(C(=O)[C@H](O)C(=C2C)C3(C)C)[C@@H](O)CC2OC[C@]24OC(C)=O)[C@@H](NC(=O)OC(C)(C)C)c2ccccc2)cc1 (stereo partly drawn) [Compound D1, 2-(2-methoxyethoxy) acetyl-L-Ala-L-Ala-L-Asn-4-amino benzyl-Docetaxel]	–	–	–	–	–	–	–	–	–	–	greatly improved	–	excellent synergistic effect	Activation ratio (%) in homogenates from different tumor tissues [1, 12]: 83.07%; Activation ratio (%) in homogenates from different tumor tissues [9, 12]: 68.23%; Activation ratio (%) in homogenates from different tumor tissues [2, 12]: 71.46%; Activation ratio (%) in homogenates from different tumor tissues [3, 12]: 85.77%; Activation ratio (%) in homogenates from different tumor tissues [4, 12]: 77.76%; Activation ratio (%) in homogenates from different tumor tissues [5, 12]: 79.56%; Activation ratio (%) in homogenates from different tumor tissues [6, 12]: 85.32%; Activation ratio (%) in homogenates from different tumor tissues [7, 12]: 87.57%; Activation ratio (%) in homogenates from different tumor tissues [8, 12]: 77.76%; Size of tumor (mm^3) Day 18 (D121 lung tumor cells; [13]): 324.45 mm^3; inhibitory rate on tumor % Day 18 (D121 lung tumor cells; [13]): 77.2%; CD8: CD45 (%) (tumor CD8+ T cells; Table 49, CD8 positive cells in CD45 positive cells of tumor, flow cytometry, drugs 13.2 μmol/kg, PDL1 antibody 5 μg/kg): 18.5%
COc1cccc2c1C(=O)c1c(O)c3c(c(O)c1C2=O)C[C@@](O)(C(C)=O)C[C@@H]3O[C@H]1C[C@H](NC(=O)OCc2ccc(NC(=O)[C@H](CC(N)=O)NC(=O)[C@H](C)NC(=O)[C@H](C)NC(=O)CCCCCN3C(=O)C=CC3=O)cc2)[C@H](O)[C@H](C)O1 [Compound S5, 4-N—(N—(N—(N-(6-maleimidocaproyl)-L-alanyl)-L-alanyl)-L-asparaginyl)-amino benzyl alcohol-daunorubicin-carbamate]	–	–	–	–	–	–	–	–	–	–	greatly improved	–	–	Activation Efficiencies (%) ([1]; Human breast cancer MDA-MB435 tumor tissue homogenate (30 μg/ml), 1 mg/ml compound): 96.7%; Activation Efficiencies (%) (Human heart): 3.5%; Activation Efficiencies (%) ([9]; Human chronic leukemia K562 tumor tissue homogenate (30 μg/ml), 1 mg/ml compound): 73.5%; Activation Efficiencies (%) ([3]; Human liver cancer Hepg2 tumor tissue homogenate (30 μg/ml), 1 mg/ml compound): 67.3%; Activation Efficiencies (%) ([4]; Human non-small cell lung cancer A549 tumor tissue homogenate (30 μg/ml), 1 mg/ml compound): 96.7%; Activation Efficiencies (%) ([5]; Human ovarian cancer SK-OV-3 tumor tissue homogenate (30 μg/ml), 1 mg/ml compound): 97.4%; Activation Efficiencies (%) ([6]; Human pancreatic cancer Panc-1 tumor tissue homogenate (30 μg/ml), 1 mg/ml compound): 97.4%; Activation Efficiencies (%) ([7]; Human prostate cancer PC-3 tumor tissue homogenate (30 μg/ml), 1 mg/ml compound): 97.3%; Activation Efficiencies (%) ([8]; Human renal cancer OS-RC-2 tumor tissue homogenate (30 μg/ml), 1 mg/ml compound): 98.3%; Size of tumor (mm^3) Day 18 (D121 lung tumor cells; D121 immunized C57 mice, 13.2 μmol/kg weekly, PDL1 antibody 5 μg/kg where combined): 379.75 ± 125.64 mm^3; CD8: CD45 (%) (tumor CD8+ T cells; D121 immunized C57 mice, 13.2 μmol/kg, ratio of CD8 positive cells in CD45 positive cells of tumor): 17.4%
